{"source": "paper PMC5776677", "about": "(Journal of medicinal chemistry, 2016)", "key": {"[1]": {"test_system": "HBV", "assay": "Anti-HBV activity in HepG2", "assay_type": "cell-based"}, "[2]": {"test_system": "HIV-1", "assay": "Anti-HIV-1 activity in HIV-infected PBMCs", "conditions": "for TI (CC50/EC50), HIV-1: HIV-1, PBMCs"}, "[3]": {"assay": "Aqueous solubility", "assay_type": "physicochemical"}, "[4]": {"test_system": "HIV-1", "conditions": "read-out: EC50 against HIV-1; cited from earlier work"}, "[5]": {"assay": "Cytotoxicity in uninfected PBMCs", "assay_type": "cell-based", "conditions": "human"}, "[6]": {"assay_type": "physicochemical"}}, "note": "Counter-ions that a name gives are not always drawn."}
{"compound": "6-(Dodecyldisulfanyl)hexyl Hydrogen ((((R)-1-(6-Amino-9H-purin-9-yl)propan-2-yl)oxy)methyl)phosphonate [5b]", "values": [{"measurement": "TI (CC50/EC50), HBV", "setting": "[1]", "value": ">47"}, {"measurement": "TI (CC50/EC50), HIV-1", "setting": "[2]", "value": ">7000"}]}
{"compound": "CCCCCCCCCCCCCCCCSSCCOP(=O)(O)CO[C@H](C)Cn1cnc2c(N)ncnc21", "note": "[1b, 2-(hexadecyldisulfanyl)ethyl hydrogen ((((R)-1-(6-amino-9H-purin-9-yl)propan-2-yl)oxy)methyl)phosphonate]", "values": [{"measurement": "TI (CC50/EC50), HBV", "setting": "[1]", "value": "> 1200"}, {"measurement": "aqueous solubility", "setting": "[3]", "value": "poor aqueous solubility"}]}
{"compound": "CCCCCCCCCCCCCCCCSSCCCCOP(=O)(O)CO[C@H](C)Cn1cnc2c(N)ncnc21", "note": "[2b, (R)-4-(hexadecyldisulfanyl)butyl (((1-(6-amino-9H-purin-9-yl)propan-2-yl)oxy)methyl)phosphonate]", "values": [{"measurement": "TI (CC50/EC50), HBV", "setting": "[1]", "value": ">200"}, {"measurement": "aqueous solubility", "setting": "[3]", "value": "poor aqueous solubility"}, {"measurement": "TI (CC50/EC50), HIV-1", "setting": "[2]", "value": ">100000"}]}
{"compound": "CCCCCCCCCCCCCCCCSSCc1ccccc1COP(=O)(O)CO[C@H](C)Cn1cnc2c(N)ncnc21", "note": "[4b, (R)-2-((hexadecyldisulfanyl)methyl)benzyl (((1-(6-amino-9H-purin-9-yl)propan-2-yl)oxy)methyl)phosphonate]", "values": [{"measurement": "TI (CC50/EC50), HIV-1", "setting": "[2]", "value": ">31800"}]}
{"compound": "CCCCCCCCCCCCCCCCOCCCOP(=O)(O)CO[C@H](C)Cn1cnc2c(N)ncnc21", "note": "[CMX-157, Hexadecyloxypropyl-9-R-[2-(Phosphonomethoxy)-Propyl]-Adenine]", "values": [{"measurement": "EC50", "setting": "[4]", "value": 0.02, "unit": "µM"}]}
{"compound": "CC(C)OC(=O)OCOP(=O)(CO[C@H](C)Cn1cnc2c(N)ncnc21)OCOC(=O)OC(C)C", "note": "[TDF, tenofovir disoproxil fumarate]", "values": [{"measurement": "CC50", "setting": "[5]", "value": 44, "unit": "µM"}]}
{"compound": "C[C@H](Cn1cnc2c(N)ncnc21)OCP(=O)(O)O", "note": "[TFV, tenofovir, reference compound]", "values": [{"measurement": "TI (CC50/EC50), HIV-1", "setting": "[2]", "value": ">300"}]}
{"compound": "C[C@H](Cn1cnc2c(N)ncnc21)OCP(=O)(O)OCCS", "note": "[compound 6, 2-mercaptoethyl hydrogen ((((R)-1-(6-amino-9H-purin-9-yl)propan-2-yl)oxy)methyl)phosphonate]", "values": [{"measurement": "TI (CC50/EC50), HBV", "setting": "[1]", "value": ">2"}, {"measurement": "stability in glycine/HCl buffer", "setting": "[6]; pH 2.0, 0.1 M DTT, 37.4 °C", "value": "no observed decomposition"}, {"measurement": "stability in PBS", "setting": "[6]; pH 7.43, TFV appears as new signal", "value": "Moderate stability"}, {"measurement": "decomposition in aqueous carbonate/bicarbonate buffer", "setting": "[6]; pH 9.19, 0.1 M DTT, 37.4 °C", "value": "significant decomposition"}, {"measurement": "time to complete consumption of starting material", "setting": "[6]; pH 10.16", "value": "≤ 8", "unit": "min"}, {"measurement": "TI (CC50/EC50), HIV-1", "setting": "[2]", "value": ">5.38"}, {"measurement": "fold less active than TFV against HIV-infected PBMCs", "setting": "[2]; relative to TFV", "value": 58, "unit": "fold"}]}
{"compound": "C[C@H](Cn1cnc2c(N)ncnc21)OCP(=O)(O)OCCCCS", "note": "[compound 7, 4-mercaptobutyl hydrogen ((((R)-1-(6-amino-9H-purin-9-yl)propan-2-yl)oxy)methyl)phosphonate]", "values": [{"measurement": "TI (CC50/EC50), HBV", "setting": "[1]", "value": "> 1"}, {"measurement": "stability in various aqueous buffers", "setting": "[6]; all tested pH values, several hours at 37 °C", "value": "no detectable decomposition"}]}
